Data on nine molecules can be found in patent publication EP0730589B1, “ISOXAZOLINE COMPOUNDS USEFUL AS […] ANTAGONISTS” (THE DU PONT MERCK PHARMACEUTICAL COMPANY, priority 1993, dated 1995).

Usually IC50 stands for the concentration needed to halve the response being measured.

The test system of this test is platelet aggregation. The test is described as follows: Platelet aggregation assay (platelet rich plasma, PRP). The format is cell-based. The following applies: inhibition of agonist-induced aggregation in human platelet rich plasma (PRP); ester prodrugs preincubated with porcine liver esterase, ADP-induced. As to the method:
Platelet Aggregation Assay: Venous blood was obtained from the arm of a healthy human donor who was drug-free and aspirin-free for at least two weeks prior to blood collection. Blood was collected into 10 mL citrated vacutainer tubes. The blood was centrifuged for 15 minutes at 150 x g at room temperature, and platelet-rich plasma (PRP) was removed. The remaining blood was centrifuged for 15 minutes at 1500 x g at room temperature, and platelet-poor plasma (PPP) was removed. Samples were assayed on a aggregometer (PAP-4 Platelet Aggregation Profiler), using PPP as the blank (100% transmittance). 200 µL of PRP was added to each micro test tube, and transmittance was set to 0%. 20 µL of various agonists (ADP, collagen, arachidonate, epinephrine, thrombin) were added to each tube, and the aggregation profiles were plotted (% transmittance versus time). The results are expressed as % inhibition of agonist-induced platelet aggregation. For the IC50 evaluation, the test compounds were added at various concentrations prior to the activation of the platelets.
Ester prodrugs were preincubated (10^-3 M F.C.) with 100 IU/ml Porcine liver esterase (Sigma Chemical Co., St. Louis, MO, #E-3128) for 2 hours at 37 °C. Aliquots are then diluted in 0.1 M Tris, pH 7.4, to the desired concentrations. Aliquots of 20 µl of the esterase pretreated prodrugs are added to 200 µl of human platelet rich plasma. Samples were placed in platelet profiler (aggregometer) for 8 minutes at 37 °C, followed by the addition of 100 µM adenosine diphosphate (Sigma Chemical Co., St. Louis, MO, #A-6521), to induce platelet aggregation. Platelet aggregation was allowed to proceed for 5 minutes. Percent inhibition is calculated using percent aggregation in the presence of the test compound divided by percent aggregation of control, times 100. This value is subtracted from 100, yielding percent inhibition. Calculation of IC50 is performed on a Texas Instruments TI59 with an IC50 program.
Table 2 below sets forth the biological activity of representative compounds of the present invention. The indicated compounds were tested for their ability to inhibit platelet aggregation (using platelet rich plasma (PRP)). The IC50 value (the concentration of antagonist which inhibits platelet aggregation by 50% relative to a control lacking the antagonist) is shown. In Table 5 the IC50 values are expressed as: +++ = IC50 of <10 µM; ++ = ICso of 10-50 µM; + = IC50 of 50-100 µM (µM = micromolar).

In the case of `N=C(N)c1ccc(C2=NOC(CC(=O)NCCC(=O)O)C2)cc1` (racemic) [Example 1, 5(R,S)-3-[3-(4-Amidinophenyl)isoxazolin-5-ylacetyl]aminopropanoic Acid], the IC50 was under 10 µM.

For the molecule `CNC(=N)c1ccc(C2=NOC(CC(=O)NCCC(=O)O)C2)cc1` (racemic) [Example 21], the IC50 is under 10 µM.

For the molecule `CCCNC(=N)c1ccc(C2=NOC(CC(=O)NCCC(=O)O)C2)cc1` (racemic) [Example 25], the IC50 was under 10 µM.

Regarding `CCCCNC(=N)c1ccc(C2=NOC(CC(=O)NCCC(=O)OCC)C2)cc1` (racemic) [Example 26, Ethyl 5(R,S)-3-[3-(4-N-n-Butylamidinophenyl)isoxazolin-5-ylacetyl]aminopropanoate], the IC50 is under 10 µM.

Consider `CCCCNC(=N)c1ccc(C2=NOC(CC(=O)NCCC(=O)O)C2)cc1` (racemic) [Example 27], for which the IC50 was under 10 µM.

For `CCCCCNC(=N)c1ccc(C2=NOC(CC(=O)NCCC(=O)OCC)C2)cc1` (racemic) [Example 29], the IC50 is under 10 µM.

Take `CCOC(=O)CCNC(=O)CC1CC(c2ccc(C(=N)NCCC(C)C)cc2)=NO1` (racemic) [Example 31]: the IC50 was under 10 µM.

Consider `CCCCCNC(=N)c1ccc(C2=NOC(CC(=O)NCCC(=O)O)C2)cc1` (stereo not drawn) [Example 28], for which the IC50 is under 10 µM.

Take `COC(=O)CCNC(=O)CC1CC(c2ccc(C(=N)NCc3ccccc3)cc2)=NO1` (stereo not drawn) [Example 32]: the IC50 is under 10 µM.
